This is an account of results in patent US20150132764A1, “BAG3 AS BIOCHEMICAL SERUM AND TISSUE MARKER” (BIOUNIVERSA S.R.L., priority 2012, published 2015).

Assay [1] deals with J774 A.1 cells. The assay can be described thus: FACS competition assay of FITC-rBAG3 binding to J774 macrophages. More on the design: species or system murine. The following applies: 625 nM peptide, then 14 nM FITC-rBAG3, J774 cells. How it is done:
In particular J774 cells were incubated with 14 nM FITC-BAG3 protein and with 625 nM of BAG3 peptides (peptide 1, peptide 2, peptide 3, peptide 4 or scrambled peptide) or with 420 nM of F(ab′)2 fragments from anti-BAG3 monoclonal and polyclonal antibodies (mouse monoclonal AC1, AC2 and rabbit polyclonal TOS2). F(ab′)2 fragments from mouse IgG or F(ab′)2 fragments from rabbit IgG were used as a negative control.
Competition—J774 A.1 cells (2.5×105/100 μl) were incubated with 625 nM of BAG3 peptides (peptide 1, peptide 2, peptide 3, peptide 4 or scrambled peptide) or with 420 nM of F(ab′)2 fragments from anti-BAG3 monoclonal and polyclonal antibodies (mouse monoclonal AC1, AC2 and rabbit polyclonal TOS2) or F(ab′)2 fragments from mouse IgG or F(ab′)2 fragments from rabbit IgG in PBS containing 2% FBS+0.1% NaN3 for 30 min on ice. After incubation the cells were washing with PBS and then were incubated with of FITC-rBAG3 protein (14 nM), in PBS containing 2% FBS+0.1% NaN3 for 30 min at 4° C. in the dark. After washing with PBS, the cells were resuspended in PBS+2% FBS+0.1% NaN3 and analyzed by flow cytometer (BD Biosciences).

The target of assay [2] is FITC-conjugated recombinant BAG3 protein (human) (UniProt O95817). The assay can be described thus: flow cytometry competition; 14 nM FITC-rBAG3 on J774 A.1 cells with 420 nM control F(ab')2. (A flow cytometer gives signals particle by particle.)
Chain of UniProt O95817 (O95817 whole entry): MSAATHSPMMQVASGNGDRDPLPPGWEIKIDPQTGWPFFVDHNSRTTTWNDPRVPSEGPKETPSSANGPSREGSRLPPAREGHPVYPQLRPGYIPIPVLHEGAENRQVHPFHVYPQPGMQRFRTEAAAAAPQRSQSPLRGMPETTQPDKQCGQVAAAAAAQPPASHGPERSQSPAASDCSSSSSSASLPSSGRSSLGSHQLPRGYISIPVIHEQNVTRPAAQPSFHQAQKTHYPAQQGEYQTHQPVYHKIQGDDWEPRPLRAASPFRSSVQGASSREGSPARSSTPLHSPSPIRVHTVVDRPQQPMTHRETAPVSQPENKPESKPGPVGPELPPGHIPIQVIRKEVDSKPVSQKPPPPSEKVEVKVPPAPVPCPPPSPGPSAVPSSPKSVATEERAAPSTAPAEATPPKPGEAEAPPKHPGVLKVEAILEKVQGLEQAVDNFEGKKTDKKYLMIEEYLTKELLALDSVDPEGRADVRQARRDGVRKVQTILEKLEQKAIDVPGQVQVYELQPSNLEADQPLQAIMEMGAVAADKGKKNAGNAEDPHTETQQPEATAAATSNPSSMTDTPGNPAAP
In assay [3] the test system is J774 A.1 cells. The assay can be described thus: FACS analysis of FITC-rBAG3 binding to J774 macrophages. More on the design: species or system murine. The settings on record: for % of positive cells (±S.D.): flow cytometry. How it is done:
FIG. 3B: BAG3 binds macrophages. J774 A1 macrophages (1×10^6 cells/ml) were incubated with different concentration of Fitc-BAG3 protein (7, 14 and 70 nm). FITC-BSA (70 nM) was used as a negative control (grey). Cells fluorescence was analyzed by flow cytometry.
rBAG3 binding—J774 A.1 cells were blocked with 2% FBS+0.1% NaN3 in PBS for 15 min on ice and incubated (2.5×105/100 μl) with different concentration of FITC-rBAG3 protein (7, 14 and 70 nm) or FITC-BSA (70 nM) in PBS containing 2% FBS+0.1% NaN3 for 30 min at 4° C. in the dark. After washing with PBS, the cells were resuspended in PBS+2% FBS+0.1% NaN3 and analyzed with a FACScan (BD Biosciences) flow cytometer.

Assay [4] addresses surface of J774 A1 macrophages (unidentified BAG3 binding partner) (murine). The assay is described as follows: flow cytometry on J774 A.1 cells, FITC-BSA negative control.
Assay [5] has the same target. The assay is described as follows: flow cytometry on J774 A.1 cells, FITC-rBAG3.
Assay [6] has the same target. The assay can be described thus: flow cytometry on J774 A.1 cells, FITC-rBAG3 minus FITC-BSA background.
The test system of the next assay is HCMa cells. The assay is described as follows: Confocal direct fluorescence of rBAG3-FITC binding to cardiomyocytes. On the set-up: species or system Human. The settings on record: FITC-conjugated BAG3, 1 h, FIG. 3A. The text has this:
FIG. 3A: Confocal microscopy analysis of direct fluorescence performed for detection of rBAG3-FITC binding to HCMa cells (a, b, c) and J774 A1 cells (d, e, f, g, h, i). BAG3 recombinant protein and purified BSA (albumin from bovine serum purchased from SIGMA) were conjugated to FITC using the FluoroTag FITC Conjugation Kit purchased from SIGMA following the manufacturer instructions. Equal amount of rBAG3-FITC (b, e) and BSA-FITC (h) proteins, calculated following the manufacturer instructions, were added in HCM and J774 A1 culture media with 0.1% NaN3 for 1 h. β-integrin was analyzed as control (a, d, g). Cells were analyzed by a Zeiss LSM confocal microscope. Merged images are shown in c, f and i.
Cells were cultured on coverslips in six-well plates to 60-70% confluence and equal amount of rBAG3-FITC and BSA-FITC proteins were added in HCMa and J774 A1 culture media with 0.1% NaN3 for 1 h. […] Samples were analyzed using a confocal laser scanning microscope (Zeiss LSM confocal microscope, Germany). […] For production of figures, brightness and contrast of images were adjusted by taking care to leave a light cellular fluorescence background for visual appreciation of the lowest fluorescence intensity features and to help comparison among the different experimental groups. […]

For assay [7], the system named is inducible nitric oxide synthase (iNOS). The assay can be described thus: iNOS expression in J774 A1 macrophages incubated with BAG3 (Western blotting). The class given is cell-based, murine. The following applies: J774 A1 cells, 20 hours, FIG. 3C panel a. How it is done: (§1) FIG. 3C: panel a—Analysis of Cox-2 and iNOS levels in J774 A1 macrophages incubated with BAG3. J774 A1 cells at 80% confluency were incubated with control medium, BSA, LPS or rBAG3, for 20 hours. Polymixin was added where indicated to verify that the effects of E. coli-derived rBAG3 were independent from the presence of contaminating endotoxin. Cox-2 and iNOS expression were analyzed in cell lysates by Western blotting.
(§2) Cells were harvested and lysed in a buffer containing 20 mM HEPES (pH 7.5), 150 mM NaCl, 0.1% Triton (TNN buffer) supplemented with a protease inhibitors cocktail (1 mM phenylmethylsulfonyl fluoride, […]) by 3 cycles of freezing and thawing. Soluble proteins were collected after a centrifugation at 10,000 g for 15 min and their amount was determined by Bradford assay (Bio-Rad, Hercules, Calif.). 25 μg of total protein and serum samples (1:2 in PBS-T 0.05%) were run on 8% or 10% SDS-PAGE gels and electrophoretically transferred to nitrocellulose membrane. […] Immunoreactivity was detected by sequential incubation with horseradish peroxidase-conjugated secondary antibodies purchased from Pierce (Rockford, Ill.) and ECL detection reagents purchased from Amersham Life Sciences Inc. (Arlington Heights, Ill., USA).
For orientation: Immunoblotting shows a protein as a band on a membrane.

The next assay relates to cyclooxygenase (Cox)-2. The assay is described as follows: Cox-2 expression in J774 A1 macrophages incubated with BAG3 (Western blotting). The class given is cell-based, murine. The following applies: J774 A1 cells, 20 hours, FIG. 3C panel a. On the procedure: as §1, §2
Assay [8] relates to J774 A.1 cells. The assay is described as follows: Nitrite release from J774 A1 macrophages (Griess reaction). The following applies: 24 hours, FIG. 3C panel b. Format: cell-based, murine. How it is done:
FIG. 3C panel b—Analysis of nitrite release from J774 A1 macrophages incubated with BAG3. J774 A1 cells at 80% confluency were incubated with control medium, BSA, LPS or rBAG3 for 24 hours. 100 μl of supernatants from each sample were incubated with 100 μl of Griess reagent; the optical density at 550 nm (OD550) was measured with a Beckman DU62 spectrophotometer. Nitrite concentration was evaluated by comparing the OD550 of the sample with that of a standard curve of sodium nitrite.
Nitrite content (NO2^−), a stable metabolite of NO released by cells in the culture supernatant, was measured in J774 A.1 cells (5×104/in 96-well microplates) treated with LPS (10 ng/ml) or with rBAG3 (7, 14 and 28 nM) or BSA (28 nM) for 24 hours in absence or presence of polymyxin B sulfate (Sigma-Aldrich, St. Louis, Mo., USA) 5 μg/ml. NO2^− amounts were measured by Griess reaction. Briefly, 100 μL of cell culture medium were mixed with 100 μL of Griess reagent—equal volumes of 1% (w:v) sulphanilamide in 5% (v:v) phosphoric acid and 0.1% (w:v) naphtylethylenediamine-HCl—and incubated at room temperature for 10 min, and then the absorbance was measured at 550 nm in a microplate reader Titertek (Dasit, Cornaredo, Milan, Italy). The amount of NO2− (as μM) in the samples was calculated from a sodium nitrite standard curve.
Background: The Griess reaction detects nitrite, a stable product of nitric oxide.

The subject of assay [9] is J774 A.1 cells. The assay is described as follows: IL-6 release from J774 A1 macrophages (ELISA). Format: cell-based, murine. The settings on record: FIG. 3C panel c. On the procedure: FIG. 3C panel c—Analysis of IL-6 release from J774 A1 macrophages incubated with BAG3. J774 A1 cells at 80% confluency macrophages were incubated with control medium, BSA, LPS or recombinant BAG3 for 5 hours. BAG3 peptides (peptide 1, peptide 2, peptide 3, peptide 4 or scrambled peptide) 625 nM were added where indicated to verify their ability to block BAG3 activity. IL-6 production was measured in cell culture medium using an ELISA test. IL-6 concentration was evaluated by comparing the OD of the sample with that of a standard curve of recombinant IL-6.
IL6 was measured in supernatant of J774 A.1 cells (5×10^4/in 96-well microplates) treated with LPS (10 ng/ml) or with rBAG3 (14 nM) or BSA (14 nM) for 10 or 20 hours in absence or presence of polymyxin B sulfate (5 μg/ml). After treatment 50 μL of cell culture medium were collected and analyzed in triplicate with a mouse IL6 Kit (eBioscience).

For assay [10], the target named is surface of J774 A1 macrophages (unidentified BAG3 binding partner) (murine). The assay can be described thus: flow cytometry competition; 14 nM FITC-rBAG3 on J774 A.1 cells with 625 nM peptide.

For “DKGKKNAGNAEDPHT (listed as Homo sapiens) [Pep3, 13]”, in the assay on J774 A.1 cells [1], the “Competition assays: % inhibition” value worked out at 47.2% and the “Competition assays: % of positive cells (±S.D.)” value (shortened to “Competition assays: % … (±S.D.)”) was 5.86 (±0.43) %.

“DRDPLPPGWEIKIDPQ (listed as Homo sapiens) [Pepl, 11]”: in the assay with J774 A.1 cells [1], the “Competition assays: % inhibition” value turned out to be 98.4% and the “Competition assays: % … (±S.D.)” value was 0.18 (±0.05) %.

Turning to F(ab')2 fragments from mouse IgG, in assay [2], the % inhibition (in general, the percentage by which the read-out fell short of the control) came out at 0% and the % of positive cells was 12.3%.

Regarding F(ab')2 fragments from rabbit IgG, in assay [2], the % inhibition worked out at 0% and the % of positive cells was found to be 14.7%.

Turning to “FITC-BSA: purified albumin from bovine serum conjugated to FITC, negative control [reference compound]”, the “% of positive cells (±S.D.)” value in the assay on J774 A.1 cells [3] (FITC-BSA negative control, J774 cells) was 4.04 (±0.06) %.

For “FITC-conjugated bovine serum albumin (from UniProt P02769 25-607)”, the % of positive cells in assay [4] turned out to be 4.04%.

Take “FITC-conjugated recombinant BAG3 protein (from UniProt O95817 1-575) (ligand)”: the % of positive cells in [5] is 15.7%; in [6], 11.1%.

Regarding “FITC-rBAG3: BAG3 recombinant protein conjugated to FITC”, the “binding to macrophages of the cell line J774 (in words)” value in the assay on J774 A.1 cells [3] (FITC-conjugated BAG3, FIG. 3B) is listed as “bound to macrophages”. Moreover, the “% of positive cells (±S.D.)” value in the assay with J774 A.1 cells [3] (FITC-rBAG3 14 nM, J774 cells) is recorded as 15.7 (±0.45) %. Besides, the “% of positive cells (±S.D.), (FITC-rBAG3)-(FITC-BSA)” value with J774 A.1 cells [3] (FITC-rBAG3 signal minus FITC-BSA signal, J774 cells) is 11.06 (±0.45) %. In addition, in the assay on HCMa cells, the “binding to the cardiomyocyte surface (in words)” value is reported as “did not apparently bind”.

Regarding “NPSSMTDTPGNPAAP (listed as Homo sapiens) [Pep4, 14]”, in the assay on J774 A.1 cells [1], the “Competition assays: % inhibition” value came out at 93.8% and the “Competition assays: % … (±S.D.)” value was 0.68 (±0.20) %.

“SSPKSVATEERAAPS (listed as Homo sapiens) [Pep2, 12]”: in the assay on J774 A.1 cells [1], the “Competition assays: % inhibition” value came out at 89.1% and the “Competition assays: % … (±S.D.)” value is 1.21 (±0.63) %.

Regarding “recombinant BAG3: E. coli-derived recombinant BAG3 protein”, in assay [7], the “iNOS levels in macrophages” value is listed as “enhanced”. Besides, the “Cox-2 levels in macrophages” value in the assay with cyclooxygenase (Cox)-2 is “enhanced”. Also, the release of nitrite entry with J774 A.1 cells [8] is reported as “induced the release”. The “release of interleukin (IL)-6” value with J774 A.1 cells [9] was “induced the release”.

B1: BAG3 peptide 1 (peptide)
peptide: DRDPLPPGWEIKIDPQ
For B1, in assay [10], the % inhibition is 98.4% and the % of positive cells is 0.18%.

B2: BAG3 peptide 4 (peptide)
peptide: NPSSMTDTPGNPAAP
As for B2, in assay [10], the % inhibition amounted to 93.8% and the % of positive cells worked out at 0.68%.

B3: BAG3 peptide 3 (peptide)
peptide: DKGKKNAGNAEDPHT
In assay [10], B3 registered a % inhibition of 47.2% and a % of positive cells of 5.86%.

B4: BAG3 peptide 2 (peptide)
peptide: SSPKSVATEERAAPS
For the molecule B4, in assay [10], the % inhibition worked out at 89.1% and the % of positive cells was 1.21%.
